From the NIST ThermoML archive (doi:10.1021/je100256w)
± gives the expanded uncertainty stated by the source.

Experiment: cn = amount concentration of the nth substance listed, in mol/dm3
Conditions: 101 kPa, Liquid, Dip Cell

Cc1ccc(S(=O)(=O)[O-])cc1.[Na+] [sodium p-toluenesulfonate] + O
electrical conductivity [S/m]
Conditions	298 K	303 K	308 K	313 K
c1 = 1.98e-05	1.97e-05 ± 1.8e-07	1.898e-05 ± 1.2e-07	2.03e-05 ± 3.8e-07	2.26e-05 ± 4.7e-07
c1 = 3.92e-05	3.417e-05 ± 2.4e-07	3.49e-05 ± 4.9e-07	3.87e-05 ± 7.9e-07	4.25e-05 ± 7.3e-07
c1 = 5.83e-05	4.83e-05 ± 5.3e-07	5.03e-05 ± 7.2e-07	5.5e-05 ± 1.1e-06	6.1e-05 ± 1.3e-06
c1 = 7.69e-05	6.1e-05 ± 7.5e-07	6.43e-05 ± 1.1e-06	7.18e-05 ± 1.6e-06	7.97e-05 ± 1.5e-06
c1 = 9.52e-05	7.34e-05 ± 9.9e-07	7.77e-05 ± 1.5e-06	8.74e-05 ± 2e-06	9.66e-05 ± 1.9e-06
c1 = 0.0001132	8.47e-05 ± 1.3e-06	9.1e-05 ± 1.7e-06	0.000101 ± 2.3e-06	0.000113 ± 2.4e-06
c1 = 0.0001308	9.61e-05 ± 1.7e-06	0.000104 ± 2e-06	0.000115 ± 2.5e-06	0.000128 ± 2.6e-06
c1 = 0.0001481	0.000107 ± 2e-06	0.000117 ± 2.1e-06	0.000127 ± 2.7e-06	0.000142 ± 3.1e-06
c1 = 0.0001651	0.000117 ± 2.4e-06	0.000129 ± 2.4e-06	0.00014 ± 2.8e-06	0.000156 ± 3.4e-06
c1 = 0.0001818	0.000127 ± 2.5e-06	0.000139 ± 2.6e-06	0.000152 ± 3.1e-06	0.000169 ± 3.5e-06
c1 = 0.0001982	0.000137 ± 2.5e-06	0.000149 ± 2.8e-06	0.000164 ± 3.4e-06	0.000181 ± 3.6e-06
c1 = 0.0002143	0.000147 ± 2.9e-06	0.000161 ± 3e-06	0.000175 ± 3.5e-06	0.000194 ± 3.3e-06
c1 = 0.0002456	0.000164 ± 3.3e-06	0.000179 ± 3.4e-06	0.000196 ± 2.7e-06	0.000203 ± 2.2e-06
c1 = 0.0002609	0.00017 ± 3.4e-06	0.000188 ± 2.4e-06	0.000192 ± 2.8e-06	0.000214 ± 4.5e-06
c1 = 0.0002759	0.00018 ± 3.5e-06	0.000196 ± 2.3e-06	0.000201 ± 3e-06	0.000224 ± 4.7e-06
c1 = 0.0002906	0.0001884 ± 1.2e-06	0.000192 ± 2.3e-06	0.000209 ± 4.4e-06	0.000234 ± 5e-06
c1 = 0.0003051	0.0001964 ± 1.3e-06	0.0002 ± 2.5e-06	0.000219 ± 4.4e-06	0.000242 ± 4.9e-06
c1 = 0.0003193	0.000203 ± 2.2e-06	0.000208 ± 2.7e-06	0.000228 ± 4.6e-06	0.000253 ± 5e-06
c1 = 0.0003333	0.000196 ± 3.2e-06	0.000215 ± 4.2e-06	0.000236 ± 4.6e-06	0.00026 ± 5.1e-06
c1 = 0.0003471	0.000201 ± 4.5e-06	0.000222 ± 4.4e-06	0.000243 ± 4.9e-06	0.000269 ± 5.3e-06
c1 = 0.0003673	0.000206 ± 4.7e-06	0.000232 ± 5e-06	0.000254 ± 5.2e-06	0.000281 ± 5.6e-06
c1 = 0.0003871	0.000219 ± 4.7e-06	0.000241 ± 4.9e-06	0.000267 ± 5.4e-06	0.000293 ± 5.5e-06
c1 = 0.0004064	0.000228 ± 4.8e-06	0.000251 ± 5e-06	0.000276 ± 5.6e-06	0.000305 ± 5.9e-06
c1 = 0.0004252	0.000236 ± 5e-06	0.000259 ± 5.2e-06	0.000286 ± 5.8e-06	0.000315 ± 6.1e-06
c1 = 0.0004436	0.000242 ± 5.2e-06	0.000267 ± 5.5e-06	0.000295 ± 6.1e-06	0.000326 ± 6.4e-06
c1 = 0.0004615	0.000249 ± 4.9e-06	0.000274 ± 5.6e-06	0.000304 ± 6.4e-06	0.000336 ± 6.5e-06
c1 = 0.0004791	0.000258 ± 5.3e-06	0.000283 ± 5.6e-06	0.000313 ± 6.1e-06	0.000342 ± 6.2e-06
c1 = 0.0004962	0.000265 ± 5.9e-06	0.000293 ± 5.9e-06	0.000321 ± 6e-06	0.00035 ± 6.2e-06
c1 = 0.000513	0.000271 ± 6.1e-06	0.0003 ± 6.2e-06	0.00033 ± 6.2e-06	0.000359 ± 6.1e-06
